Measured values: the NIST ThermoML archive (doi:10.1016/j.tca.2007.05.014)
Numbers after ± are expanded uncertainties.

Key:
[1] = Molar enthalpy of transition or fusion; settings: Crystal; Adiabatic calorimetry
[2] = molar heat capacity at constant pressure; settings: 101.33 kPa, Vacuum adiabatic calorimetry
[3] = Crystal; Adiabatic calorimetry

## c1ccc(CSSCc2ccccc2)cc1 [1,4-diphenyl-2,3-dithiabutane]
[1]
  Molar enthalpy of transition or fusion: 10.75 ± 0.012 kcal/mol
[2]; 80 K, Crystal
  molar heat capacity at constant pressure: 108.82 ± 0.47 J/K/mol
[2]; 80.3 K, Crystal
  molar heat capacity at constant pressure: 108.33 ± 0.47 J/K/mol
[2]; 84.06 K, Crystal
  molar heat capacity at constant pressure: 111.79 ± 0.48 J/K/mol
[2]; 85 K, Crystal
  molar heat capacity at constant pressure: 111.44 ± 0.48 J/K/mol
[2]; 87.01 K, Crystal
  molar heat capacity at constant pressure: 113.48 ± 0.49 J/K/mol
[2]; 90 K, Crystal
  molar heat capacity at constant pressure: 116.01 ± 0.52 J/K/mol
[2]; 90.01 K, Crystal
  molar heat capacity at constant pressure: 116.34 ± 0.52 J/K/mol
[2]; 92.93 K, Crystal
  molar heat capacity at constant pressure: 118.76 ± 0.52 J/K/mol
[2]; 95 K, Crystal
  molar heat capacity at constant pressure: 122.1 ± 0.54 J/K/mol
[2]; 95.91 K, Crystal
  molar heat capacity at constant pressure: 122.02 ± 0.54 J/K/mol
[2]; 99.41 K, Crystal
  molar heat capacity at constant pressure: 127.8 ± 0.56 J/K/mol
[2]; 100 K, Crystal
  molar heat capacity at constant pressure: 129.33 ± 0.56 J/K/mol
[2]; 103.24 K, Crystal
  molar heat capacity at constant pressure: 135.01 ± 0.59 J/K/mol
[2]; 105 K, Crystal
  molar heat capacity at constant pressure: 137.39 ± 0.6 J/K/mol
[2]; 106.95 K, Crystal
  molar heat capacity at constant pressure: 141.28 ± 0.61 J/K/mol
[2]; 110 K, Crystal
  molar heat capacity at constant pressure: 145.99 ± 0.63 J/K/mol
[2]; 110.69 K, Crystal
  molar heat capacity at constant pressure: 147.39 ± 0.64 J/K/mol
[2]; 114.47 K, Crystal
  molar heat capacity at constant pressure: 153.91 ± 0.67 J/K/mol
[2]; 115 K, Crystal
  molar heat capacity at constant pressure: 154.9 ± 0.67 J/K/mol
[2]; 118.16 K, Crystal
  molar heat capacity at constant pressure: 160.1 ± 0.69 J/K/mol
[2]; 120 K, Crystal
  molar heat capacity at constant pressure: 163.94 ± 0.71 J/K/mol
[2]; 121.87 K, Crystal
  molar heat capacity at constant pressure: 169.57 ± 0.73 J/K/mol
[2]; 125 K, Crystal
  molar heat capacity at constant pressure: 172.98 ± 0.74 J/K/mol
[2]; 125.68 K, Crystal
  molar heat capacity at constant pressure: 176.87 ± 0.76 J/K/mol
[2]; 129.35 K, Crystal
  molar heat capacity at constant pressure: 179.77 ± 0.77 J/K/mol
[2]; 130 K, Crystal
  molar heat capacity at constant pressure: 181.89 ± 0.77 J/K/mol
[2]; 132.96 K, Crystal
  molar heat capacity at constant pressure: 185.92 ± 0.79 J/K/mol
[2]; 135 K, Crystal
  molar heat capacity at constant pressure: 190.59 ± 0.81 J/K/mol
[2]; 136.61 K, Crystal
  molar heat capacity at constant pressure: 192.1 ± 0.81 J/K/mol
[2]; 140 K, Crystal
  molar heat capacity at constant pressure: 199.02 ± 0.85 J/K/mol
[2]; 140.35 K, Crystal
  molar heat capacity at constant pressure: 197.02 ± 0.84 J/K/mol
[2]; 144.38 K, Crystal
  molar heat capacity at constant pressure: 205.28 ± 0.87 J/K/mol
[2]; 145 K, Crystal
  molar heat capacity at constant pressure: 207.16 ± 0.88 J/K/mol
[2]; 147.99 K, Crystal
  molar heat capacity at constant pressure: 211.7 ± 0.9 J/K/mol
[2]; 150 K, Crystal
  molar heat capacity at constant pressure: 214.97 ± 0.91 J/K/mol
[2]; 151.7 K, Crystal
  molar heat capacity at constant pressure: 217.62 ± 0.92 J/K/mol
[2]; 155 K, Crystal
  molar heat capacity at constant pressure: 222.48 ± 0.94 J/K/mol
[2]; 155.35 K, Crystal
  molar heat capacity at constant pressure: 222.51 ± 0.94 J/K/mol
[2]; 158.92 K, Crystal
  molar heat capacity at constant pressure: 228.58 ± 0.96 J/K/mol
[2]; 160 K, Crystal
  molar heat capacity at constant pressure: 229.68 ± 0.96 J/K/mol
[2]; 162.44 K, Crystal
  molar heat capacity at constant pressure: 233.74 ± 0.98 J/K/mol
[2]; 165 K, Crystal
  molar heat capacity at constant pressure: 236.6 ± 1 J/K/mol
[2]; 165.91 K, Crystal
  molar heat capacity at constant pressure: 238.97 ± 1 J/K/mol
[2]; 169.42 K, Crystal
  molar heat capacity at constant pressure: 243.63 ± 1 J/K/mol
[2]; 170 K, Crystal
  molar heat capacity at constant pressure: 243.29 ± 1 J/K/mol
[2]; 172.99 K, Crystal
  molar heat capacity at constant pressure: 248.31 ± 1 J/K/mol
[2]; 175 K, Crystal
  molar heat capacity at constant pressure: 249.78 ± 1 J/K/mol
[2]; 176.5 K, Crystal
  molar heat capacity at constant pressure: 252.64 ± 1.1 J/K/mol
[2]; 179.96 K, Crystal
  molar heat capacity at constant pressure: 257.05 ± 1.1 J/K/mol
[2]; 180 K, Crystal
  molar heat capacity at constant pressure: 256.1 ± 1.1 J/K/mol
[2]; 183.38 K, Crystal
  molar heat capacity at constant pressure: 260.66 ± 1.1 J/K/mol
[2]; 185 K, Crystal
  molar heat capacity at constant pressure: 262.31 ± 1.1 J/K/mol
[2]; 186.84 K, Crystal
  molar heat capacity at constant pressure: 265.34 ± 1.1 J/K/mol
[2]; 190 K, Crystal
  molar heat capacity at constant pressure: 268.46 ± 1.1 J/K/mol
[2]; 190.36 K, Crystal
  molar heat capacity at constant pressure: 269.4 ± 1.1 J/K/mol
[2]; 193.83 K, Crystal
  molar heat capacity at constant pressure: 273.35 ± 1.1 J/K/mol
[2]; 195 K, Crystal
  molar heat capacity at constant pressure: 274.58 ± 1.1 J/K/mol
[2]; 197.26 K, Crystal
  molar heat capacity at constant pressure: 277.29 ± 1.2 J/K/mol
[2]; 200 K, Crystal
  molar heat capacity at constant pressure: 280.71 ± 1.2 J/K/mol
[2]; 200.65 K, Crystal
  molar heat capacity at constant pressure: 280.28 ± 1.2 J/K/mol
[2]; 204 K, Crystal
  molar heat capacity at constant pressure: 284.27 ± 1.2 J/K/mol
[2]; 205 K, Crystal
  molar heat capacity at constant pressure: 286.91 ± 1.2 J/K/mol
[2]; 207.4 K, Crystal
  molar heat capacity at constant pressure: 288.01 ± 1.2 J/K/mol
[2]; 210 K, Crystal
  molar heat capacity at constant pressure: 293.18 ± 1.2 J/K/mol
[2]; 210.85 K, Crystal
  molar heat capacity at constant pressure: 291.95 ± 1.2 J/K/mol
[2]; 214.25 K, Crystal
  molar heat capacity at constant pressure: 296.05 ± 1.2 J/K/mol
[2]; 215 K, Crystal
  molar heat capacity at constant pressure: 299.57 ± 1.2 J/K/mol
[2]; 217.6 K, Crystal
  molar heat capacity at constant pressure: 300.68 ± 1.3 J/K/mol
[2]; 220 K, Crystal
  molar heat capacity at constant pressure: 306.1 ± 1.3 J/K/mol
[2]; 220.9 K, Crystal
  molar heat capacity at constant pressure: 305.02 ± 1.3 J/K/mol
[2]; 224.17 K, Crystal
  molar heat capacity at constant pressure: 310.55 ± 1.3 J/K/mol
[2]; 225 K, Crystal
  molar heat capacity at constant pressure: 312.77 ± 1.3 J/K/mol
[2]; 227.41 K, Crystal
  molar heat capacity at constant pressure: 316.71 ± 1.3 J/K/mol
[2]; 230 K, Crystal
  molar heat capacity at constant pressure: 319.61 ± 1.3 J/K/mol
[2]; 230.64 K, Crystal
  molar heat capacity at constant pressure: 324.45 ± 1.3 J/K/mol
[2]; 234.1 K, Crystal
  molar heat capacity at constant pressure: 331.98 ± 1.4 J/K/mol
[2]; 235 K, Crystal
  molar heat capacity at constant pressure: 326.59 ± 1.4 J/K/mol
[2]; 237.58 K, Crystal
  molar heat capacity at constant pressure: 333.36 ± 1.4 J/K/mol
[2]; 240 K, Crystal
  molar heat capacity at constant pressure: 333.73 ± 1.4 J/K/mol
[2]; 240.9 K, Crystal
  molar heat capacity at constant pressure: 338.86 ± 1.4 J/K/mol
[2]; 244.3 K, Crystal
  molar heat capacity at constant pressure: 341.63 ± 1.4 J/K/mol
[2]; 245 K, Crystal
  molar heat capacity at constant pressure: 341.01 ± 1.4 J/K/mol
[2]; 247.7 K, Crystal
  molar heat capacity at constant pressure: 342.44 ± 1.4 J/K/mol
[2]; 250 K, Crystal
  molar heat capacity at constant pressure: 348.41 ± 1.4 J/K/mol
[2]; 251 K, Crystal
  molar heat capacity at constant pressure: 347.57 ± 1.4 J/K/mol
[2]; 254.37 K, Crystal
  molar heat capacity at constant pressure: 353.48 ± 1.5 J/K/mol
[2]; 255 K, Crystal
  molar heat capacity at constant pressure: 355.91 ± 1.5 J/K/mol
[2]; 257.79 K, Crystal
  molar heat capacity at constant pressure: 359.5 ± 1.5 J/K/mol
[2]; 260 K, Crystal
  molar heat capacity at constant pressure: 363.48 ± 1.5 J/K/mol
[2]; 261.22 K, Crystal
  molar heat capacity at constant pressure: 363.54 ± 1.5 J/K/mol
[2]; 264.69 K, Crystal
  molar heat capacity at constant pressure: 369.67 ± 1.5 J/K/mol
[2]; 265 K, Crystal
  molar heat capacity at constant pressure: 371.1 ± 1.5 J/K/mol
[2]; 268.17 K, Crystal
  molar heat capacity at constant pressure: 374.81 ± 1.6 J/K/mol
[2]; 270 K, Crystal
  molar heat capacity at constant pressure: 378.73 ± 1.6 J/K/mol
[2]; 271.64 K, Crystal
  molar heat capacity at constant pressure: 381.1 ± 1.6 J/K/mol
[2]; 275 K, Crystal
  molar heat capacity at constant pressure: 386.35 ± 1.6 J/K/mol
[2]; 275.11 K, Crystal
  molar heat capacity at constant pressure: 386.26 ± 1.6 J/K/mol
[2]; 278.65 K, Crystal
  molar heat capacity at constant pressure: 391.99 ± 1.6 J/K/mol
[2]; 280 K, Crystal
  molar heat capacity at constant pressure: 393.93 ± 1.6 J/K/mol
[2]; 282.26 K, Crystal
  molar heat capacity at constant pressure: 396.6 ± 1.6 J/K/mol
[2]; 285 K, Crystal
  molar heat capacity at constant pressure: 401.44 ± 1.7 J/K/mol
[2]; 285.84 K, Crystal
  molar heat capacity at constant pressure: 402.1 ± 1.7 J/K/mol
[2]; 289.39 K, Crystal
  molar heat capacity at constant pressure: 410.38 ± 1.7 J/K/mol
[2]; 290 K, Crystal
  molar heat capacity at constant pressure: 408.86 ± 1.7 J/K/mol
[2]; 292.9 K, Crystal
  molar heat capacity at constant pressure: 417.2 ± 1.7 J/K/mol
[2]; 295 K, Crystal
  molar heat capacity at constant pressure: 416.2 ± 1.7 J/K/mol
[2]; 296.45 K, Crystal
  molar heat capacity at constant pressure: 417.2 ± 1.7 J/K/mol
[2]; 298.15 K, Crystal
  molar heat capacity at constant pressure: 420.77 ± 1.7 J/K/mol
[2]; 299.98 K, Crystal
  molar heat capacity at constant pressure: 422.24 ± 1.7 J/K/mol
[2]; 300 K, Crystal
  molar heat capacity at constant pressure: 423.44 ± 1.8 J/K/mol
[2]; 303 K, Crystal
  molar heat capacity at constant pressure: 427.75 ± 1.8 J/K/mol
[2]; 303.49 K, Crystal
  molar heat capacity at constant pressure: 427.76 ± 1.8 J/K/mol
[2]; 307 K, Crystal
  molar heat capacity at constant pressure: 437.99 ± 1.8 J/K/mol
[2]; 310.49 K, Crystal
  molar heat capacity at constant pressure: 432.45 ± 1.8 J/K/mol
[2]; 313.97 K, Crystal
  molar heat capacity at constant pressure: 443.61 ± 1.8 J/K/mol
[2]; 317.47 K, Crystal
  molar heat capacity at constant pressure: 440.2 ± 1.8 J/K/mol
[2]; 320.92 K, Crystal
  molar heat capacity at constant pressure: 443.39 ± 1.8 J/K/mol
[2]; 324.15 K, Crystal
  molar heat capacity at constant pressure: 448.33 ± 1.9 J/K/mol
[2]; 327.24 K, Crystal
  molar heat capacity at constant pressure: 479.87 ± 2 J/K/mol
[2]; 330.68 K, Crystal
  molar heat capacity at constant pressure: 494.5 ± 2.1 J/K/mol
[2]; 334.08 K, Crystal
  molar heat capacity at constant pressure: 565.94 ± 2.6 J/K/mol
[2]; 337.09 K, Crystal
  molar heat capacity at constant pressure: 842.59 ± 6.7 J/K/mol
[2]; 339.29 K, Crystal
  molar heat capacity at constant pressure: 2123.3 ± 32 J/K/mol
[2]; 340.75 K, Crystal
  molar heat capacity at constant pressure: 6689.9 ± 160 J/K/mol
[2]; 344.92 K, Liquid
  molar heat capacity at constant pressure: 1138.3 ± 43 J/K/mol
[2]; 350.93 K, Liquid
  molar heat capacity at constant pressure: 545.43 ± 2.5 J/K/mol
[2]; 355 K, Liquid
  molar heat capacity at constant pressure: 545.41 ± 2.2 J/K/mol
[2]; 355.68 K, Liquid
  molar heat capacity at constant pressure: 550.14 ± 2.3 J/K/mol
[2]; 359.31 K, Liquid
  molar heat capacity at constant pressure: 554.64 ± 2.3 J/K/mol
[2]; 360 K, Liquid
  molar heat capacity at constant pressure: 555.11 ± 2.3 J/K/mol
[2]; 362.99 K, Liquid
  molar heat capacity at constant pressure: 559.12 ± 2.3 J/K/mol
[2]; 365 K, Liquid
  molar heat capacity at constant pressure: 561.67 ± 2.3 J/K/mol
[2]; 366.65 K, Liquid
  molar heat capacity at constant pressure: 562.71 ± 2.3 J/K/mol
[2]; 370 K, Liquid
  molar heat capacity at constant pressure: 564.76 ± 2.3 J/K/mol
[2]; 370.29 K, Liquid
  molar heat capacity at constant pressure: 565.83 ± 2.3 J/K/mol
[2]; 373.91 K, Liquid
  molar heat capacity at constant pressure: 569.68 ± 2.4 J/K/mol
[2]; 375 K, Liquid
  molar heat capacity at constant pressure: 580.96 ± 2.4 J/K/mol
[2]; 377.39 K, Liquid
  molar heat capacity at constant pressure: 643.17 ± 2.7 J/K/mol
[3]
  Triple point temperature: 341.72 ± 0.17 K
